Holding throughout (format): cell-based
Data set [1] concerns HCV genotype Ib replicon (I389luc-ubi-neo/NS3-3′/ET) in Huh-luc/neo-ET cells. As to conditions: for Efficacy, Antagonism vol / Interaction: second drug in combination with miravirsen (SPC3649); for Efficacy, Antagonism vol: 95% confidence interval, median (≧3 experiments) or individual values; for Interaction: overall. As for the experimental part:
The anti-viral efficacy and cellular toxicity of non-transfected antimiR oligonucleotide in combination with approved and experimental anti-HCV therapeutics (e.g. NM283, 2′-C-methylcytidine, and/or VX-222) (or other NS5B polymerase inhibitors) was determined in the reporter cell line Huh-luc/neo-ET. This cell line harbors the persistently replicating I389luc-ubi-neo/NS3-3′/ET replicon containing the firefly luciferase gene-ubiquitin-neomycin phosphotransferase fusion protein and EMCV IRES driven NS3-5B HCV coding sequences containing the ET tissue culture adaptive mutations (E1202G, T1208I, and K1846T). Eight dilutions of non-transfected antimiR oligonucleotide (bracketing the calculated EC50) were evaluated in triplicate on duplicate sets of three plates with five dilutions of each of the control compounds (bracketing the calculated EC50). One set of plates was used for the determination of cellular toxicity and the other set of plates was used for the determination of anti-viral efficacy. The efficacy and toxicity results was quantified with firefly luciferase activity and XTT dye reduction, respectively, and the results of the assay is imported into the Prichard and Shipman MacSynergy II software program. The MacSynery II analysis includes calculation of the dose response of the two (or more) compounds when used alone followed by calculation of the expected additive level of antiviral inhibition or toxicity when the compounds are used together based on the individual dose response curves. The expected level of activity at each of the concentration data points was compared to the experimentally determined antiviral activity in the assay. The expected activity was subtracted from the realized activity, yielding a negative, zero or positive value. These values are plotted as a three dimensional representation of the data and the result is reported as a two-factor value, expressing the combined average above the expected level of activity (synergy volume) and the combined average below the expected level of activity (antagonism volume). Combination analysis was performed two or more times for each pair of test compound and control substance.
The reporter cell line Huh-luc/neo-ET was obtained from Dr. Ralf Bartenschlager (Department of Molecular Virology, Hygiene Institute, University of Heidelberg, Germany) by ImQuest BioSciences. This cell line harbors the persistently replicating 1389luc-ubi-neo/NS3-3′IET replicon containing the firefly luciferase gene-ubiquitinneomycin phosphotransferase fusion protein and EMCV IRES driven NS3-5B HCV coding sequences containing the ET tissue culture adaptive mutations (E 1202G, T12081, and KI846T). A stock culture of the Huh-luc/neo-ET was expanded by culture in DMEM supplemented with 10% FBS, 2 mM glutamine, penicillin (100 IU/mL)/streptomycin (100 f·Ig/mL) and IX nonessential amino acids plus I mg/ml G418. Prior to plating, the cells were split 1:4 and cultured for two passages in the same medium plus 250 f·Ig/mL G418. The cells were treated with trypsin and enumerated by staining with trypan blue and seeded into 96-well tissue culture plates at a cell culture density 5.0×10^3 cells per well in a volume of 85 f·IL per well and incubated at […] in an environment of 5% CO2 for 24 hours. Six plates were established for the determination of combination efficacy (EC50) and cytotoxicity (TC50) for each of the compound combinations (three plates each for efficacy and toxicity). Following the 24 hour incubation, eight 2-fold serial dilutions of SPC3649 in cell culture medium without G418 were prepared (final in well high test concentration of 1.20 μM to 2.40 μM) and added to the cells and five 2-fold or 5-fold serial dilutions of control compounds in cell culture medium without G418 were prepared and added to the cells.

Data set [2] has as its system HCV genotype 1b replicon NS5B S282T. Particulars: EC50 mutant / EC50 wild-type; mean of two experiments (individual values). The protocol: (§1) The in vitro antiviral of miravirsen was evaluated against wild-type HCV genotype 1b replicon and HCV genotype 1b replicons constructed to contain key amino acid substitutions in NS3 protease (A156T, R155K), NS5B polymerase (S282T, M423I) and NS5A protein (Y93H) in transient transfection assays utilizing Huh 7 cells. […] Huh 7 cells were transfected with either the wild-type or the mutant RNA constructs by electroporation. Luciferase activity was measured 72 hours after compound treatment and EC50 values determined from dose-response curves. Fold resistance was expressed as the ratio of the EC50 for mutant HCV replicon to the EC50 for wild-type HCV replicon.
(§2) The in vitro antiviral of miravirsen was evaluated against wild-type HCV genotype 1b replicon and HCV replicons constructed to contain key amino acid substitutions in NS3 protease (A156T, R155K), NS5B polymerase (S282T, M423I) and NS5A protein (Y93H) in transient transfection assays. […] Huh 7 cells were transfected with either the wild type or the mutant RNA constructs by electroporation. Luciferase activity was measured 72 hours after compound treatment and EC50 values determined from dose-response curves. Fold resistance was expressed as the ratio of the EC50 for mutant HCV replicon to the EC50 for wild-type HCV replicon. Results are expressed as the mean of two individual experiments. In an initial set of experiments, the standard protocol was modified by adding compounds 24 hours after electroporation. […] In a third experiment cells were pretreated with miravirsen for 24 hours before electroporation with wild-type RNA constructs to determine if preincubation could result in increased miravirsen antiviral activity.

The test system of data set [3] is HCV genotype 1b replicon NS3 R155K. As to conditions: EC50 mutant / EC50 wild-type, mean of two experiments (individual values). As for the experimental part:
as §1, §2

For data set [4], the system named is HCV genotype 1b replicon NS3 A156T. Particulars: EC50 mutant / EC50 wild-type, mean of two experiments (individual values). As for the experimental part:
as §1, §2

“And” between values parts separate entries of the source, which are not always exact repeats. Identical values can stand only once. Like-named read-outs stand apart in the source and are kept apart here.

For “5′-^mCs^ocsAs^otstsGs^oTs^ocsas^mCs^oas^mCs^ots^mCs^omC^o-3′ (CCATTGTCACACTCC; all phosphorothioate, sugars by position and methylation of C not given here; further chemistry not fully specified) [miravirsen]”, the overall antiviral interaction result in data set [1] (in combination with ribavirin) is listed as “apparent synergy”. For the same molecule, the EC50 in data set [1] (previously reported against stable HCV cell lines, read-out: average EC50) was determined as 0.671 µM; in data set [1] (read-out: EC50 (+/− SD)) it was 0.67 µM. Besides, the “fold change in susceptibility, NS5B S282T” value in data set [2] is recorded as 1.9 (2.6, 1.1) fold. Moreover, the “fold change in susceptibility, NS3 R155K” value in data set [3] was 1.2 (1.9, 0.4) fold. Besides, in data set [4], the “fold change in susceptibility, NS3 A156T” value is reported as 1.0 (1.4, 0.5) fold.
As to `CCC[C@H](NC(=O)[C@@H]1[C@H]2CCC[C@H]2CN1C(=O)[C@@H](NC(=O)[C@@H](NC(=O)c1cnccn1)C1CCCCC1)C(C)(C)C)C(=O)C(=O)NC1CC1` [Telaprevir, (1S,3aR,6aS)-2-[(2S)-2-[[(2S)-2-Cyclohexyl-2-(pyrazine-2-carbonylamino)acetyl]amino]-3,3-dimethylbutanoyl]-N-[(3S)-1-(cyclopropylamino)-1,2-dioxohexan-3-yl]-3,3a,4,5,6,6a-hexahydro-1H-cyclopenta[c]pyrrole-1-carboxamide], in data set [1] (in combination with ribavirin), the overall antiviral interaction entry is on record as “inconclusive”. Further, in data set [1] (in combination with ribavirin, 95% confidence level, individual values), the “Efficacy, Antag Vol” value was 0.00/−200.2 μM^2% and 37.5/−22.6; μM^2%. The entries for the “Efficacy, Antagonism vol” value in data set [1] and in data set [1] (listed as telaprevir) were 0/−3.2 μM^2% and −3.22 μM^2%, respectively. Besides, the results for the Interaction result in data set [1] and in data set [1] (listed as telaprevir) were “Positive” and “positive interaction”, respectively. Further, in data set [2], the “fold change in susceptibility, NS5B S282T” value is on record as 1.0 (1.0, 1.0) fold. The “fold change in susceptibility, NS3 R155K” value in data set [3] was 4.6 (5.0, 4.2) fold; in data set [3] (listed as telaprevir), 4.6 fold. For the same molecule, the “fold change in susceptibility, NS3 A156T” value was 36.1 (46.9, 25.2) fold in data set [4] and 36.1 fold in data set [4] (listed as telaprevir).

(Values after patent US20140113958A1, “HCV Combination Therapy” (priority 2011, published 2014).)
